Experimental findings from article PMC9763021, “Comprehensive Assessment of Biomolecular Interactions of Morpholine-Based Mixed Ligand Cu(II) and Zn(II) Complexes of 2,2′-Bipyridine as Potential Anticancer and SARS-CoV-2 Agents: A Synergistic Experimental and Structure-Based Virtual Screening” (Bioinorganic Chemistry and Applications, 2022) are described below.

The subject of experiment [1] is Salmonella enteric serovar typhi. Put plainly: Agar disc diffusion, strain C. The conditions noted are these: for diameter of the clear zone inhibition: control = 6 mm. Type of experiment: cell-based. As for the experimental part:
(§1) In-vitro antimicrobial properties were evaluated for all samples by the agar disc diffusion method towards different fungal and bacterial strains. Additionally, the reported inhibition zone values were comparatively analyzed with the standard antifungal drugs ketoconazole and amphotericin B as well as the standard antibiotic medications streptomycin and amikacin.
(§2) The current research has a curious focus on the in vitro antimicrobial properties of biological systems because these studies are crucial for developing effective antibacterial and antifungal medications. […] It can also be spelled out based on the chelation theory proposed by Overtone and Tweedy. Chelation theory points out that the partial exchanging of the positive charge of the metal center with donor moieties, and overlap of the ligand orbitals will reduce the greater degree of the metal ion's polarity, which ultimately rises the delocalization of π and d electrons over the full chelated ring system. By raising the size of the metal ion due to the retarding of polarization, chelation may also enhance the complexes' lipophilic characteristics, which further stimulate the lipid membrane permeability and break down the bacteria' enzymes responsible for cell wall formation, therefore slowing down the regular cell processes. By preventing the production of cell walls/proteins/DNA, including by obstructing folate metabolism and the cytoplasmic membrane, antimicrobial drugs frequently either fully eliminate microbes or only prevent their cell growth. Additionally, the samples' mode of action may be employed in disrupting the cell's respiration process by forming an H-bond during the morpholine-fused iminic group coordinated with the active metal center of its components, inhibiting proliferation of the cell. […] The difference in the antimicrobial efficacy of some of the compounds towards various microorganisms influences on the impermeability of the cells of the germs or the diversity of ribosomes of the microbes. The % of the inhibition of all substances is estimated from (45) (Table 9).
(§3) (A, B, C, D, and E are represented as gram negative bacteria species Escherichia coli, Salmonella enteric serovar typhi, Salmonella enteric serovar typhi, Pseudomonas aeruginosa, and Shigella flexneri, respectively. F & G are denoted as gram positive bacteria species Staphylococcus aureus and Bacillus cereus. H, I, and J are represented as fungal strains Aspergillus niger, Candida albicans, and Mucor indicus. Standard drugs for bacterial strains: Amikacin & Streptomycin Standard drugs for fungal strains: Ketoconazole and Amphotericin B. [Control (DMSO) = 6 mm].(44) Inhibition %=T–C/T×100, where T and C are represented as the diameter of microbial growth of the sample plates and the control plate (6 mm), respectively. Error limits ±2.5–5.0% (P ≤ 0.05).

Experiment [2] shares this test system. The experiment in a line: Agar disc diffusion, strain B. Format: cell-based. The conditions noted are these: for diameter of the clear zone inhibition: control = 6 mm. How it is done: as §1, §2, §3
A general note: In agar diffusion tests the substance spreads into inoculated agar from a disc or well.

Experiment [3] relates to Bacillus cereus. The experiment in a line: Agar disc diffusion, strain G. Format: cell-based. Set-up: (inhibition %): concentration or dose not given beside the values. The conditions noted are these: for diameter of the clear zone inhibition: control = 6 mm. How it is done: as §1, §2, §3
For experiment [4], the system named is Pseudomonas aeruginosa. Put plainly: Agar disc diffusion, strain D. Set-up: (inhibition %): concentration or dose not given beside the values. Type of experiment: cell-based. The conditions noted are these: for diameter of the clear zone inhibition: control = 6 mm. How it is done: as §1, §2, §3
Experiment [5] deals with Escherichia coli. Put plainly: Agar disc diffusion, strain A. Set-up: (inhibition %): concentration or dose not given beside the values. The following applies: for (inhibition %): (T–C)/T×100; for diameter of the clear zone inhibition: control (DMSO) = 6 mm. Format: cell-based. How it is done:
as §1, §2, §3

Experiment [6] has as its system Staphylococcus aureus. Put plainly: Agar disc diffusion, strain F. Type of experiment: cell-based. Set-up: (inhibition %): concentration or dose not given beside the values. The conditions noted are these: for diameter of the clear zone inhibition: control = 6 mm. How it is done: as §1, §2, §3
For experiment [7], the system named is Shigella flexneri. Put plainly: Agar disc diffusion, strain E. Set-up: (inhibition %): concentration or dose not given beside the values. Format: cell-based. The following applies: for diameter of the clear zone inhibition: control = 6 mm. As for the experimental part:
as §1, §2, §3

In experiment [8] the test system is A549 human lung cancer cell line. The experiment in a line: MTT cell viability assay, A549. Type of experiment: cell-based. The following applies: 72 hours exposure. As for the experimental part:
(§4) All substances towards the A549, HepG2, MCF-7, and NHDF cell lines were evaluated by using the MTT approach. The collected data were utilized to compute the IC50 value and contrast it with the gold standard cisplatin anticancer medication.
(§5) Cellular viability or metabolic properties can be measured using the MTT assay, which is a powerful and credible method for anticancer properties. The anticancer efficacy of all test compounds was investigated by the MTT assay against A549, HepG2, MCF-7, and NHDF cell lines. As per the colorimetric approach, the IC50 findings of all test substances were evaluated as the % of cell viability/growth inhibition. […] Nevertheless, complex (1a) has the highest cytotoxic potential among others. The acquired findings were in the subsequent sequence as follows: (cisplatin) > (1a) > (2a) > (HL) (Figure 16 and Table 10). The cytotoxic effectiveness is dependent upon the DNA-binding modalities, the structure-activity relationship, as well as drug concentrations and incubation period exposure. […] As per Tweedy's chelation theory, charge equilibration happens as a result of coordination between the ligands and metal ions, which minimises the polarity of the metal ions and causes the capability of the test complexes to pass via the cell membrane lipid layer. Thus, it put off the synthesis of cell wall/protein/nucleic acids. Additionally, the results of DNA-binding tests using these complexes, including gel electrophoresis, UV-visible spectral titration, hydrodynamic, emission, and CV findings, were in good agreement with the findings of cytotoxicity. The expressions (46) and (47) were supported to measure the % of growth inhibition and cell viability. […]
(§6) A549, HepG2 MCF-7, and NHDF are represented as human lung cancer cell line, liver cancer cell line, breast cancer cell line, and normal human dermal fibroblasts cell line.(45) % Cytotoxiciy=1− Mean absorbance of Sample at 595 nm/Mean absorbance of Controlat 595 nm ×100, (46) Cellviability%=100−Cytotoxiciy%.
In general terms: Formazan colour is commonly taken as a measure of viable cells.

Experiment [9] concerns NHDF normal human dermal fibroblasts cell line. The experiment in a line: MTT cell viability assay, NHDF. Format: cell-based. The conditions noted are these: 72 hours exposure, normal cells. As for the experimental part: as §4, §5, §6
For experiment [10], the system named is MCF-7 breast cancer cell line. The experiment in a line: MTT cell viability assay, MCF-7. Format: cell-based, human. The following applies: 72 hours exposure. How it is done:
as §4, §5, §6

In experiment [11] the test system is HepG2 liver cancer cell line. Put plainly: MTT cell viability assay, HepG2. The following applies: 72 hours exposure. Type of experiment: cell-based, human. How it is done:
as §4, §5, §6

Take `NCC[C@H](O)C(=O)N[C@@H]1C[C@H](N)[C@@H](O[C@H]2O[C@H](CN)[C@@H](O)[C@H](O)[C@H]2O)[C@H](O)[C@H]1O[C@H]1O[C@H](CO)[C@@H](O)[C@H](N)[C@H]1O` [Amikacin, reference compound]: the “(inhibition %)” value in [1] turned out to be 75%; in [2] it was 73%; in experiment [3] it was 70%; in experiment [4], 70%; in [5] it was 73%; in experiment [6] it was 70%. Also, in experiment [7], the “(inhibition %)” value was found to be 70%. Besides, the “diameter of the clear zone inhibition” value in [1] is given as 24 mm; in experiment [2], 22 mm; in experiment [3], 20 mm; in experiment [4] it was 20 mm; in experiment [5], 22 mm; in experiment [6], 20 mm. Further, the “diameter of the clear zone inhibition” value in [7] came to 20 mm.

Turning to `N.N.[Cl][Pt][Cl]` [Cisplatin, reference compound], the IC50 worked out at 31.9 ± 1.6 µM in experiment [8], 26.9 ± 1.3 µM in experiment [9], 20.2 ± 1 µM in experiment [10] and 22.9 ± 1.1 µM in experiment [11].

On to `[H]/N=C(/N)N[C@H]1[C@H](O)[C@@H](O)[C@H](O[C@@H]2O[C@@H](C)[C@](O)(C=O)[C@H]2O[C@@H]2O[C@@H](CO)[C@H](O)[C@@H](O)[C@@H]2NC)[C@@H](N/C(N)=N\[H])[C@@H]1O` [Streptomycin, reference compound], for which the “(inhibition %)” value was determined as 75% in experiment [1]; 77% in experiment [2]; 71% in experiment [3]; 71% in [4]; 75% in experiment [5]; 71% in experiment [6]. In addition, the “(inhibition %)” value in [7] is given as 76%. Besides, the “diameter of the clear zone inhibition” value in experiment [1] was 24 mm; in experiment [2], 26 mm; in [3], 21 mm; in experiment [4] it was 21 mm; in experiment [5], 24 mm; in experiment [6] it was 21 mm. In addition, the “diameter of the clear zone inhibition” value in experiment [7] is recorded as 25 mm.

The IC50 is the concentration at which inhibition is half-maximal.
